pEC50: −log10 of the molar value.

For this test, the target named is T1, human RXFP1 (Homo sapiens, UniProt Q9HBX9).
T1 construct: expressed in transfected cells
T1 sequence (Q9HBX9 1-757): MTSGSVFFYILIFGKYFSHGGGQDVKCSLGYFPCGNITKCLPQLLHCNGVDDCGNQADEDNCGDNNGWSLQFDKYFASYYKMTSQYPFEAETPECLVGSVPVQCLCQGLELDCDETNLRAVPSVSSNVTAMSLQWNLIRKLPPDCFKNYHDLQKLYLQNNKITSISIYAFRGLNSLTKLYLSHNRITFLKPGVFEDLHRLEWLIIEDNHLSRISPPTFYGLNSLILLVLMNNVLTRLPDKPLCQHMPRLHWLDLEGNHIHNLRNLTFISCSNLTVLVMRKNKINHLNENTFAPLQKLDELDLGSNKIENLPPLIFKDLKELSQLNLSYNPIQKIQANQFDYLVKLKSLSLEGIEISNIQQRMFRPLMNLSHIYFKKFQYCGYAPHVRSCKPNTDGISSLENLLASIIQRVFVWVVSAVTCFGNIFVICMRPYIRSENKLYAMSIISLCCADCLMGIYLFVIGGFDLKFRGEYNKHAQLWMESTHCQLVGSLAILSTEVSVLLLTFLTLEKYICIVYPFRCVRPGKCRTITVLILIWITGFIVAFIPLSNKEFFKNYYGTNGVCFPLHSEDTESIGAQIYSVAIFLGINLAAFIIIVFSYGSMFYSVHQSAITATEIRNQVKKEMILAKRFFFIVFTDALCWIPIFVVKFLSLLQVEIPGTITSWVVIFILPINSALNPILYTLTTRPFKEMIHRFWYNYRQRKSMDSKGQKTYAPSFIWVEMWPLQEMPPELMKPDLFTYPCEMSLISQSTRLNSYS
As to the kind of experiment: RXFP1 cAMP assay (hRXFP1 HEK293 cAMP assay, HTRF). The test is classed as cell-based. The settings on record: HEK293 cells stably expressing human RXFP1, 30 min at room temperature, read-out: cAMP hRXFP1 HEK293 Assay EC50. The gist of the method:
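In a stable human RXFP1 HEK293 line, compounds acted for 30 min at RT in buffer with 0.5 mM IBMX. HTRF then quantified cellular cAMP.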
`COc1ccc(C2=NOC3CS(=O)(=O)CC23)cc1C(=O)N[C@@H]1C2CCC(/C2=C/C2CC2)[C@@H]1C(=O)Nc1ccc(F)c(C(F)(F)F)c1` (mixture of isomers) [Example 442, (1R,2S,3R,4R,Z)-7-(cyclopropylmethylene)-3-(5-(5,5-dioxido-3a,4,6,6a-tetrahydrothieno[3,4-d]isoxazol-3-yl)-2-methoxybenzamido)-N-(4-fluoro-3-(trifluoromethyl)phenyl)bicyclo[2.2.1]heptane-2-carboxamide]: the pEC50 (as a rule, −log10 of the EC50, conventionally taken in molar units) is 7.60.

As to `COc1ccc(-c2ccc(C(CC(=O)O)C(F)(F)F)cc2F)cc1C(=O)N[C@H]1[C@@H](C(=O)Nc2ccc(F)c(C(F)(F)F)c2)[C@H]2CC[C@@H]1/C2=C\C1CC1` (stereo partly shown) [compound 884], the pEC50 is 9.00. In the case of `COc1ccc(-c2cc(C(C)O)on2)cc1C(=O)N[C@@H]1C2CCC(/C2=C/C2CC2)[C@@H]1C(=O)Nc1ccc(F)c(C(F)(F)F)c1` (stereo partly shown) [compound 424], the negative-log EC50 (pEC50) is 7.96. With `COc1ccc(C2=NOC3COCC23)c(F)c1C(=O)N[C@H]1[C@@H](C(=O)Nc2ccc(F)c(C(F)(F)F)c2)[C@H]2CC[C@@H]1/C2=C\C1CC1` (single isomer, unassigned) [compound 693] the figure was 6.10; with `COc1ccc(C2=NOC3COCC23)cc1C(=O)N[C@H]1[C@@H](C(=O)Nc2cc(C(F)(F)F)c(F)cc2F)[C@H]2CC[C@@H]1/C2=C\C1CC1` (stereo partly shown) [compound 767], 8.52; with `COc1ccc(-c2cnc3n2CCC3O)cc1C(=O)N[C@H]1[C@@H](C(=O)Nc2ccc(F)c(C(F)(F)F)c2)[C@H]2CC[C@@H]1/C2=C\C1CC1` (stereo partly shown) [compound 754], 8.44. The same measure for `COc1ccc(C2=NOC3CC(C(C)(C)O)CC23)cc1C(=O)N[C@H]1[C@@H](C(=O)Nc2ccc(F)c(C(F)(F)F)c2)[C@H]2CC[C@@H]1/C2=C\C1CC1` (single isomer, unassigned) [compound 464]: 8.49. With `COc1ccc(C2=NOC(C(C)(C)O)C2)cc1C(=O)N[C@H]1[C@@H](C(=O)Nc2ccc(F)c(C(F)(F)F)c2)[C@H]2CC[C@@H]1/C2=C\C1CC1` (single isomer, unassigned) [compound 573] the figure was 7.17. Take `COc1ccc(-c2cc(C(=O)NS(C)(=O)=O)ccc2F)cc1C(=O)N[C@@H]1C2CCC(/C2=C/Br)[C@@H]1C(=O)Nc1ccc(F)c(C(F)(F)F)c1` (stereo partly shown) [compound 161]: the negative logarithm of the EC50 (pEC50) is 6.96.

With `COc1ccc(-c2cc([C@H](OC(=O)NC3CCC3)C(F)(F)F)ccc2F)cc1C(=O)N[C@H]1[C@@H](C(=O)N[C@H](C)C2(C)CC2)[C@H]2CC[C@@H]1/C2=C\CCC(F)(F)F` [compound 966], the negative-log EC50 (pEC50) is 8.16. The same measure for `COc1cc(F)c(F)cc1C(=O)N[C@@H]1C2CCC(/C2=C/c2cnoc2)[C@@H]1C(=O)Nc1ccc(F)c(C(F)(F)F)c1` (stereo partly shown) [compound 39]: 7.06. For the compound `COc1ccc(C2=NOC3CC(O)CC23)cc1C(=O)N[C@H]1[C@@H](C(=O)Nc2ccc(F)c(C(F)(F)F)c2)[C@H]2CC[C@@H]1/C2=C\C(F)(F)F` (stereo partly shown) [compound 543], the negative logarithm of the EC50 (pEC50) is 7.52.

As to `COc1ccc(-c2cncc(C(=O)O)c2)cc1C(=O)N[C@@H]1C2CCC(/C2=C/C(F)(F)F)[C@@H]1C(=O)Nc1ccc(F)c(C(F)(F)F)c1` (stereo partly shown) [compound 288], the pEC50 was 6.90.

`COc1ccc(-c2cc(C(=O)O)ccc2F)cc1C(=O)N[C@@H]1C2CCC(/C2=C/C(=O)N2CC(F)(F)C2)[C@@H]1C(=O)Nc1ccc(F)c(C(F)(F)F)c1` (stereo partly shown) [compound 324]: the negative logarithm of the EC50 (pEC50) was 5.65.

In the case of `COc1ccc(C2=NOC3CC(CO)CC23)cc1C(=O)N[C@H]1[C@@H](C(=O)Nc2ccc(F)c(C(F)(F)F)c2)[C@H]2CC[C@@H]1/C2=C\c1cnc(C)s1` (stereo partly shown) [compound 804], the negative-log EC50 (pEC50) is 8.40. Turning to `COc1ccc(-c2ccc3[nH]cc(C(=O)O)c3c2)cc1C(=O)N[C@@H]1C2CCC(/C2=C/C(F)(F)F)[C@@H]1C(=O)Nc1ccc(F)c(C(F)(F)F)c1` (stereo partly shown) [compound 295], the pEC50 was 7.28.

The record behind these values is patent US20250221966A1, “RXFP1 AGONISTS” (BRISTOL-MYERS SQUIBB COMPANY, priority 2021, published 2025).
